Substitutions are numbered along the chain they refer to. Read-outs that look alike come from different tables or passages of the source.
What was measured:
WT M1 mAChR [1] = target: T1, WT M1 mAChR (Homo sapiens, UniProt P11229); assay: Receptor alkylation assay: IP1 accumulation after PBZ pre-treatment, CHO-hM1 cells; format: cell-based; conditions: for Effect on maximal ACh response (potency of ACh increased): 10 µM PBZ pre-treatment, ACh a partial agonist; for αβ (functional cooperativity with ACh, antilog in brackets) / Logαβ (logarithm of functional cooperativity between ACh and modulator): alkylated with PBZ (10 µM pre-treatment); for Logαβ (logarithm of functional cooperativity between ACh and modulator): β constrained to 1
T1 construct: expressed in transfected cells
T1 sequence (P11229 1-460): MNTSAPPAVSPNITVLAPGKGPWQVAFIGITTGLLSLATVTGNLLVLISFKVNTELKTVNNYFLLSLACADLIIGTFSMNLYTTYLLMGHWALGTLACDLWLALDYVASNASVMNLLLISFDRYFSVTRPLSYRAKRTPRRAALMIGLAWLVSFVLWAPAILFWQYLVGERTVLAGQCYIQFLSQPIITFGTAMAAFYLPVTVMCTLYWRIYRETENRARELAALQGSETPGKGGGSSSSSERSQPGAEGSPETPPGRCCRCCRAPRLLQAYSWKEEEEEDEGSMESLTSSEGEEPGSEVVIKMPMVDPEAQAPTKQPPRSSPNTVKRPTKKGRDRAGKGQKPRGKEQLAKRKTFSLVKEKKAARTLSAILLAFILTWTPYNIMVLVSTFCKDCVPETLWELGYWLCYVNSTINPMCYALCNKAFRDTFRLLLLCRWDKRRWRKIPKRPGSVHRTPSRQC
Protocol: The IP-One assay kit (Cisbio) was used for the direct quantitative measurement of myo-Inositol 1 phosphate (IP1). Cells were seeded at 25,000 per well into 96-well transparent cell culture plates and incubated overnight at 37 °C. […] Cells were then lysed with IP1 lysis buffer (50 mM HEPES pH 7.0, 15 mM KF, 1.5% V/V Triton-X-100, 3% V/V FBS, 0.2% W/V BSA), and IP1 levels were measured by incubation of cell lysates with FRET reagents (the cryptate-labeled anti-IP1 antibody and the d2-labeled IP1 analogue) for 1 h at 37 °C. […] Signals were expressed as the FRET ratio: F = (fluorescence665 nm/fluorescence590 nm) × 10^4, and normalized to the response to maximal ACh concentration (100 µM).
Cells were pre-treated with vehicle or the irreversible orthosteric alkylating agent, phenoxybenzamine (PBZ) for 30 min at 37 °C, 5% CO2 to reduce functional receptor availability, followed by three extensive washes with PBS. IP1 accumulation assays were then performed as described above.
Functional interaction studies between orthosteric agonists and allosteric modulators in IP1 assays were analysed using the following operational model of allosterism and agonism (Eq. (3)):(3) E=Basal+Em-BasalAKB+αβB+τBBEC50/EC50KB+B+AKB+αβB+τBBEC50 where Em is the maximal possible system response, and Basal is the response in the absence of agonist. KB is the equilibrium dissociation constant of allosteric ligand, and EC50 is the concentration of orthosteric agonist required to achieve half maximal response. [A] and [B] denote concentrations of orthosteric and allosteric ligands, respectively. α and β denote allosteric effects on orthosteric ligand binding affinity and efficacy, respectively, and τB denotes the efficacy of allosteric ligand. This model assumes that ACh is a full agonist at the receptor in both the absence/presence of modulator and/or there is no efficacy modulation (i.e., β = 1).

Y179^ECL2A M1 mAChR = target: T2, Y179^ECL2A M1 mAChR (Homo sapiens, UniProt P11229, Y179A); assay: Whole cell [3H]NMS binding inhibition/interaction assay (ACh ± PAM), FlpIn CHO cells; conditions: affinity and cooperativity could not be estimated
T2 construct: expressed in transfected cells
T2 sequence (P11229 1-460 Y179A): T1 sequence (P11229 1-460) with Y179A
Protocol: (§1) Saturation binding assays were performed to estimate the expression levels and equilibrium dissociation constant of the radioligand (KD). FlpIn CHO cells stably expressing the WT or mutant c-myc hM1 mAChRs were plated at the density of 25,000 per well of 96-well white clear bottom Isoplates (PerkinElmer Life Sciences, Boston, MA), and grown overnight at 37 °C. […] Atropine at the final concentration of 100 µM was used to determine non-specific binding. The assays were terminated by rapid removal of the radioligand, and two washes with 100 µl/well ice-cold 0.9% NaCl buffer.
(§2) All data were analysed using GraphPad Prism 7 (San Diego, CA). […] Binding interaction studies between orthosteric agonists and allosteric modulators were fitted to the following allosteric ternary complex model (Eq. (1)):(1) Y=BmaxD/D+KDKB/α^′B+KB1+I/KI+B/KB+αIB/KIKB where Bmax is the total number of receptors, [D], [B] and [I] denote the concentrations of radioligand, allosteric ligand, and orthosteric ligand, respectively, and KD, KB and KI represent their respective equilibrium dissociation constants. α′ and α are the cooperativity factors between the allosteric ligand and radioligand or orthosteric ligand, respectively.

F77^2.56I M1 mAChR = target: T3, F77^2.56I M1 mAChR (Homo sapiens, UniProt P11229, F77I); assay: as above; conditions: for Logα NMS (logarithm of binding cooperativity between [3H]NMS and modulator): constrained to −2 where preferred model by F-test
T3 construct: expressed in transfected cells
T3 sequence (P11229 1-460 F77I): T1 sequence (P11229 1-460) with F77I
Protocol: as §1, §2

WT M1 mAChR [2] = target: T1, WT M1 mAChR; assay: as above; conditions: for Logα NMS (logarithm of binding cooperativity between [3H]NMS and modulator): constrained to −2 where preferred model by F-test
Protocol: as §1, §2

| Structure (SMILES) | Effect on maximal ACh response (potency of ACh increased) (WT M1 mAChR [1]) | αβ (functional cooperativity with ACh, antilog in brackets) (WT M1 mAChR [1]) | Logαβ (logarithm of functional cooperativity between ACh and modulator) (WT M1 mAChR [1]) | Modulatory effect on ACh inhibition of [3H]NMS binding (Y179^ECL2A M1 mAChR) | Kb (F77^2.56I M1 mAChR) [nM] | Logα ACh (logarithm of binding cooperativity between ACh and modulator) (F77^2.56I M1 mAChR; F77^2.56I) | α ACh (binding cooperativity with ACh, antilog in brackets) (F77^2.56I M1 mAChR; F77^2.56I) | Logα NMS (logarithm of binding cooperativity between [3H]NMS and modulator) (F77^2.56I M1 mAChR; F77^2.56I) | Kb (WT M1 mAChR [2]) [nM] | Logα ACh (logarithm of binding cooperativity between ACh and modulator) (WT M1 mAChR [2]; WT) | Logα NMS (logarithm of binding cooperativity between [3H]NMS and modulator) (WT M1 mAChR [2]; WT) | α NMS (binding cooperativity with [3H]NMS, antilog in brackets) (F77^2.56I M1 mAChR; F77^2.56I) | Kb (F77^2.56I M1 mAChR; F77^2.56I, allosteric ternary complex model, 0.3 nM [3H]NMS, read-out: pKB (negative logarithm of the allosteric modulator equilibrium dissociation constant) (converted)) [nM] | Kb (WT M1 mAChR [2]; WT, allosteric ternary complex model, 0.3 nM [3H]NMS, read-out: pKB (negative logarithm of the allosteric modulator equilibrium dissociation constant) (converted)) [nM] | α ACh (binding cooperativity with ACh, antilog in brackets) (WT M1 mAChR [2]; WT) |
| --- | --- | --- | --- | --- | --- | --- | --- | --- | --- | --- | --- | --- | --- | --- | --- |
| Cn1cc(-c2ccc(COc3ccccc3-c3cc(=O)n(C4CCCCC4O)cn3)cc2)cn1 (stereo not drawn) [MIPS1780, 3-(2-hydroxycyclohexyl)-6-(2-((4-(1-methyl-1H-pyrazol-4-yl)-benzyl)oxy)phenyl)pyrimidin-4(3H)-one] | no effect on the maximal agonist response | 117 | 2.07 ± 0.13 | completely abolished | 661 | 1.60 ± 0.09 | 25.7 | = −2 | 661 | 1.60 ± 0.08 | = −2 |  |  |  |  |
| Cc1cnc(C(=O)N[C@H]2CCOC[C@@H]2O)cc1Cc1ccc(-c2cscn2)cc1 [PF-06767832, N-((3R,4S)-3-hydroxytetrahydro-2H-pyran-4-yl)-5-methyl-4-(4-(thiazol-4-yl)benzyl)pyridine-2-carboxamide] | no effect on the maximal agonist response | 144 | 2.16 ± 0.11 | completely abolished |  | 1.83 ± 0.14 | 44.7 | −1.02 ± 0.12 |  | 1.40 ± 0.08 | −1.05 ± 0.06 | 0.06 | 417 | 309 |  |
| Cn1cc(-c2ccc(Cn3cc(C(=O)N[C@H]4CCCC[C@@H]4O)c4c(F)cc(F)cc43)cn2)cn1 [VU6004256, 4,6-difluoro-N-(1S,2S)-2-hydroxycyclohexyl-1-((6-(1-methyl-1H-pyrazol-4-yl)pyridine-3-yl)methyl)-1H-indole-3-carboxamide] | no effect on the maximal agonist response | 91 | 1.96 ± 0.22 | completely abolished | 417 |  |  | = −2 | 479 | 1.40 ± 0.09 | = −2 |  |  |  | 15.5 |

From article PMC6066355, “Probing the binding site of novel selective positive allosteric modulators at the M1 muscarinic acetylcholine receptor” (Biochemical Pharmacology, 2018)
